These results are taken from patent US11198699B2 (ALIGOS THERAPEUTICS, INC., priority 2019, dated 2021).

SMILES strings stand for the structures.

The target of one assay is PRMT5/MEP50 (Homo sapiens (Human), UniProt O14744). The assay is described as follows: PRMT5/MEP50 enzyme inhibition assay, Assay 2 (384-well, MALDI mass spectrometry, histone H4 1-21 peptide). The note with it: 1 μM SAM, 0.1 μM histone H4 1-21 peptide, 18-hour incubation at rt. It is filed as biochemical. As to the method:
Compounds were tested for inhibition of methyltransferase activity in 384-well plate assay format using mass spectrometry technology. In this enzyme inhibition assay, compounds were tested in a 11-dose IC50 mode with 3-serial dilution, in duplicate, starting at 1, 10, or 100 μM. Reactions were carried out at 1 μM SAM and 0.1 μM histone H4 1-21 peptide as substrates for methyl transfer. Following an 18-hour incubation at rt, the reaction was stopped with 0.5% formic acid. Products of the reaction were captured while unreacted substrates were washed away, prior to MALDI mass spectrometry detection and analysis. Percent enzyme activity was calculated based on no inhibitor DMSO control as 100% activity. EC50 values were determined in GraphPad Prism 8 using the [inhibitor] vs. response—Variable slope (four parameters) function.
Compounds of Formula (I) show activity in this assay. A value of ‘A’ in the table below indicates an IC50 of <1 nM, a value of ‘B’ indicates an IC50≥1 nM to ≤100 nM, and a value of ‘C’ indicates an IC50 value of >100 nM.

Assay [1] has as its system A549 lung carcinoma cells. The experiment in a line: Cell proliferation assay, A549 (CellTiter-Glo, 7 days). It is filed as cell-based. To be noted: A549, 7 days, CellTiter-Glo 2.0. As to the method: (§1) HepG2 hepatoma cells (ATCC, HB-8065) were maintained in DMEM with high glucose (Lonza, 12-914F) supplemented with 10% fetal bovine serum (FBS; Biowest, S181B-500) and 2 mM L-glutamine (Biowest, X0551-100) at 37° C. and 5% CO2. A549 lung carcinoma cells (ATCC, CCL-185) were maintained in F-12K medium (ThermoFisher 21127030) supplemented with 10% FBS at 37° C. and 5% CO2. Exponentially growing HepG2 or A549 were plated in white, clear-bottom 96-well plates (Corning, 3903) at a cell density of 2000 (HepG2) or 350 (A549) cells per well in 199 μL of HepG2 medium. Next, 1 μL of a 5-fold 9-point dilution series of test compound in DMSO was added to the different wells. Cells were incubated at 37° C. 5% CO2 for 7 days. Cell viability was assessed on day 7 with the CellTiter-Glo 2.0 Cell Viability assay kit (Promega, G9243) to quantify the intracellular amounts of ATP: first, 100 μL of cell culture medium was removed from each well, next 100 μL of CellTiter-Glo® 2.0 Reagent was added and plates were shaken for 2 minutes on an orbital shaker. After 10 minutes stabilization at room temperature, read-out was performed on a ThermoFisher VarioSkan Lux plate reader. Counts were normalized to DMSO control (0% inhibition) and the cytotoxic control (100% inhibition) and EC50 values were determined in GraphPad Prism 8 using the [Agonist] vs. response—Variable slope (four parameters) function.
(§2) As shown by the data of Table 2, compounds of Formula (I) have activity in this assay. A value of ‘A’ in the table below indicates an EC50 of <20 nM, a value of ‘B’ indicates an EC50≥20 nM to <100 nM, a value of ‘C’ indicates an EC50 value of EC50≥100 nM to <1000 nM and a value of ‘D’ indicates an EC50≥1000 nM
Background: Cellular ATP, detected with luciferase, serves as a proxy for viable cell number.

Another assay has as its system HepG2 hepatoma cells. The assay is described as follows: Cell proliferation assay, HepG2 (CellTiter-Glo, 7 days). It is filed as cell-based. To be noted: HepG2, 7 days, CellTiter-Glo 2.0. The protocol: as §1, §2

Sequence of PRMT5/MEP50 (O14744 whole entry): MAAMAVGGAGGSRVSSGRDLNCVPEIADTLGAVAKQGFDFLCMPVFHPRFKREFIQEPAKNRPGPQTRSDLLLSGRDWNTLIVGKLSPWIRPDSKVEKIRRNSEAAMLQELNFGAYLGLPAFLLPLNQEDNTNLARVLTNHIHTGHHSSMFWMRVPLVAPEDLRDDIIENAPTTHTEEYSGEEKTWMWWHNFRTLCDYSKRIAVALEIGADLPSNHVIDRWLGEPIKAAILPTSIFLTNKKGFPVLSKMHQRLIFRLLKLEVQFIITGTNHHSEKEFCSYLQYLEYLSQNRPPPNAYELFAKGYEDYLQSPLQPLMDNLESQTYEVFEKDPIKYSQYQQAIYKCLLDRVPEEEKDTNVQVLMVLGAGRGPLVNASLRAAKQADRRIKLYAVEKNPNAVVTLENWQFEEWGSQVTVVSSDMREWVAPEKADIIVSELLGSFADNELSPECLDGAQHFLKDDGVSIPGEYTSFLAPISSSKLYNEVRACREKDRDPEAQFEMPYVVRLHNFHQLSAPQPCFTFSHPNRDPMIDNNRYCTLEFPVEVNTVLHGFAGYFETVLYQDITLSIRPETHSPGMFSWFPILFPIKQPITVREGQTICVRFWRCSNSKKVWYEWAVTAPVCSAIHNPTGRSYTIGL
Sequence of PRMT5/MEP50 (Q9BQA1 whole entry partner): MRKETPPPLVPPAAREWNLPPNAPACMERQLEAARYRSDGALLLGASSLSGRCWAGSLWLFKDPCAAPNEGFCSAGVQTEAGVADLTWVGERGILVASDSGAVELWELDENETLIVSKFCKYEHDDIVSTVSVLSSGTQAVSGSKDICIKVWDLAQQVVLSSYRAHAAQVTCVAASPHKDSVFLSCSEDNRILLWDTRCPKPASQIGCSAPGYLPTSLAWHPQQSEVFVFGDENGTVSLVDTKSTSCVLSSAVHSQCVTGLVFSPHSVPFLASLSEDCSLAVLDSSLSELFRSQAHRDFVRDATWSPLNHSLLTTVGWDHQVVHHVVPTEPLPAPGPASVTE

In general, IC50 refers to the concentration needed to halve the response being measured. A high value points to weaker potency in that assay. One may read the EC50 as the concentration needed to bring the measured effect to its halfway point. `C[C@]1(CCc2cc3nc(N)ccc3c(F)c2F)C[C@@H](n2ccc3c(N)ncnc32)[C@H](O)[C@@H]1O` [Compound 41, (1S,2R,3S,5R)-3-(2-(2-amino-5,6-difluoroquinolin-7-yl)ethyl)-5-(4-amino-7H-pyrrolo[2,3-d]pyrimidin-7-yl)-3-methylcyclopentane-1,2-diol] came in with an IC50 at PRMT5/MEP50 of less than 1 nM. Further, the EC50 in assay [1] (Homo sapiens, A549, 168 h) was less than 20 nM; in the assay with HepG2 hepatoma cells (Homo sapiens, 168 h), less than 20 nM.
The molecule `C[C@]1(CCc2ccc3ccc(N)nc3c2)C[C@@H](c2cnn3c(N)ncnc23)[C@H](O)[C@@H]1O` [Compound 56] registered a half-maximal inhibitory concentration (IC50) on PRMT5/MEP50 of less than 1 nM. Moreover, the EC50 in assay [1] (Homo sapiens, A549, 168 h) is less than 20 nM; in the assay with HepG2 hepatoma cells (Homo sapiens, 168 h) it was less than 20 nM.
Consider `C[C@]1(CCc2cc(F)c3cc(Cl)c(N)nc3c2)C[C@@H](n2ccc3c(N)ncnc32)[C@H](O)[C@@H]1O` [Compound 30, (1S,2R,3S,5R)-3-(2-(2-amino-3-chloro-5-fluoroquinolin-7-yl)ethyl)-5-(4-amino-7H-pyrrolo[2,3-d]pyrimidin-7-yl)-3-methylcyclopentane-1,2-diol], for which the half-inhibitory concentration (IC50) against PRMT5/MEP50 was less than 1 nM. Also, the 50% effective concentration (EC50) in assay [1] (Homo sapiens, A549, 168 h) is less than 20 nM; in the assay on HepG2 hepatoma cells (Homo sapiens, 168 h), less than 20 nM.
The molecule `C[C@]1(CCCCc2cccc(N)n2)C[C@@H](n2ccc3c(N)ncnc32)[C@H](O)[C@@H]1O` [Compound 47] showed a 50% inhibitory concentration (IC50) against PRMT5/MEP50 of less than 1 nM. The EC50 in assay [1] (Homo sapiens, A549, 168 h) was 20 to 100 nM; in the assay with HepG2 hepatoma cells (Homo sapiens, 168 h), 100 to 1000 nM.
Take `C[C@]1(CCc2cc(F)c3ccc(N)nc3c2)C[C@@H](n2ccc3c(N)ncc(F)c32)[C@H](O)[C@@H]1O` [Compound 42, (1S,2R,3S,5R)-3-(2-(2-amino-5-fluoroquinolin-7-yl)ethyl)-5-(4-amino-7-fluoro-1H-pyrrolo[3,2-c]pyridin-1-yl)-3-methylcyclopentane-1,2-diol]: at PRMT5/MEP50, the IC50 was less than 1 nM. The EC50 in assay [1] (Homo sapiens, A549, 168 h) was less than 20 nM; in the assay with HepG2 hepatoma cells (Homo sapiens, 168 h), less than 20 nM.
Molecule `C[C@]1(CCc2ccc3ccc(N)nc3c2)C[C@@H](c2ccc3c(N)ncnn23)[C@H](O)[C@@H]1O` [Compound 48] registered an IC50 against PRMT5/MEP50 of less than 1 nM. For the same molecule, the EC50 in assay [1] (Homo sapiens, A549, 168 h) was less than 20 nM; with HepG2 hepatoma cells (Homo sapiens, 168 h), less than 20 nM.
Regarding `Nc1nc2cc(CC[C@@]34C[C@@H]3[C@@H](n3ccc5c(N)ncnc53)[C@H](O)[C@@H]4O)ccc2cc1Cl` [Compound 19, (1R,2R,3S,4R,5S)-1-[2-(2-amino-3-chloro-7-quinolyl)ethyl]-4-(4-aminopyrrolo[2,3-d]pyrimidin-7-yl)bicyclo[3.1.0]hexane-2,3-diol], the 50% inhibitory concentration (IC50) at PRMT5/MEP50 is less than 1 nM. For the same molecule, the EC50 in assay [1] (Homo sapiens, A549, 168 h) was less than 20 nM; in the assay with HepG2 hepatoma cells (Homo sapiens, 168 h) it was less than 20 nM.
In turn, `COC[C@]1(CCc2ccc3cc(Br)c(N)nc3c2)C[C@@H](n2ccc3c(N)ncnc32)[C@H](O)[C@@H]1O` [Compound 58] gave an IC50 against PRMT5/MEP50 of less than 1 nM.
For `Cc1ncnc2c1ccn2[C@@H]1C[C@](C)(CCc2cc(F)c3cc(Cl)c(N)nc3c2)[C@@H](O)[C@H]1O` [Compound 32, (1S,2R,3S,5R)-3-(2-(2-amino-3-chloro-5-fluoroquinolin-7-yl)ethyl)-3-methyl-5-(4-methyl-7H-pyrrolo[2,3-d]pyrimidin-7-yl)cyclopentane-1,2-diol], the EC50 in assay [1] (Homo sapiens, A549, 168 h) is less than 20 nM; with HepG2 hepatoma cells (Homo sapiens, 168 h), less than 20 nM.
`C[C@]1(CCc2ccc3cc(C(F)F)c(N)nc3c2)C[C@@H](n2ccc3c(N)ncnc32)[C@H](O)[C@@H]1O` [Compound 23]: the IC50 against PRMT5/MEP50 was less than 1 nM. For the same molecule, the EC50 (in assay [1]; in the assay on HepG2 hepatoma cells) was less than 20 nM throughout.
For `Nc1ccc2ccc(CC[C@@]34CC3[C@@H](n3ccc5c(N)ncnc53)[C@H](O)[C@@H]4O)nc2n1` (stereo partly drawn) [Compound 22, (1R,2R,3S,4R)-1-[2-(7-amino-1,8-naphthyridin-2-yl)ethyl]-4-(4-aminopyrrolo[2,3-d]pyrimidin-7-yl)bicyclo[3.1.0]hexane-2,3-diol], the IC50 at PRMT5/MEP50 was less than 1 nM. Moreover, the EC50 fell in the range of 100 to 1000 nM in assay [1] (Homo sapiens, A549, 168 h) and 100 to 1000 nM with HepG2 hepatoma cells (Homo sapiens, 168 h).
In the case of `Nc1nc2cc(OC[C@@H]3[C@@H](O)[C@@H](O)C4(n5ccc6c(N)ncnc65)C[C@@H]34)ccc2cc1Br` (mixture of isomers) [Compound 17, rac-(2S,3R,4R,5S)-4-[(2-amino-3-bromo-7-quinolyl)oxymethyl]-1-(4-aminopyrrolo[2,3-d]pyrimidin-7-yl)bicyclo[3.1.0]hexane-2,3-diol], on PRMT5/MEP50, the IC50 was more than 100 nM. Moreover, the 50% effective concentration (EC50) is not below 1000 nM in assay [1] (Homo sapiens, A549, 168 h) and not below 1000 nM with HepG2 hepatoma cells (Homo sapiens, 168 h).
In turn, `C[C@]1(CCc2ccc3cc(C#N)c(N)nc3c2)C[C@@H](n2ccc3c(N)ncnc32)[C@H](O)[C@@H]1O` [Compound 27] had an IC50 on PRMT5/MEP50 of less than 1 nM. The EC50 (in assay [1]; in the assay on HepG2 hepatoma cells) was 20 to 100 nM each time.
For `CCCCCOC(=O)Nc1nc2cc(CC[C@@]3(C)C[C@@H](n4ccc5c(N)ncnc54)[C@H](O)[C@@H]3O)ccc2cc1Cl` [Compound 33, pentyl (7-(2-((1S,2R,3S,4R)-4-(4-amino-7H-pyrrolo[2,3-d]pyrimidin-7-yl)-2,3-dihydroxy-1-methylcyclopentyl)ethyl)-3-chloroquinolin-2-yl)carbamate], the EC50 was less than 20 nM in assay [1] (Homo sapiens, A549, 168 h) and less than 20 nM in the assay with HepG2 hepatoma cells (Homo sapiens, 168 h).
For `C[C@]1(CCc2ccc3cc(Cl)c(N)nc3c2)C[C@@H](n2ccc3c(N)ncnc32)[C@H](O)[C@@H]1O` [Compound 18], the 50% inhibitory concentration (IC50) against PRMT5/MEP50 is less than 1 nM. The EC50 (in assay [1]; with HepG2 hepatoma cells) was less than 20 nM each time.
For `C[C@]1(CCc2ccc3cc(Cl)c(N)nc3c2)C[C@@H](n2ccc3c(N)ncnc32)[C@H](O)[C@]1(C)O` [Compound 28], the half-maximal inhibitory concentration (IC50) at PRMT5/MEP50 is less than 1 nM. Moreover, the 50% effective concentration (EC50) was 100 to 1000 nM in assay [1] and 20 to 100 nM in the assay with HepG2 hepatoma cells.
The molecule `CCCCCOC(=O)Nc1ccc2ccc(CC[C@@]3(C)C[C@@H](n4ccc5c(N)ncnc54)[C@H](O)[C@@H]3O)cc2n1` [Compound 20, pentyl N-[7-[2-[(1S,2R,3S,4R)-4-(4-aminopyrrolo[2,3-d]pyrimidin-7-yl)-2,3-dihydroxy-1-methyl-cyclopentyl]ethyl]-2-quinolyl]carbamate] had an IC50 on PRMT5/MEP50 of 1 to 100 nM. In addition, the EC50 in assay [1] (Homo sapiens, A549, 168 h) was 20 to 100 nM; in the assay with HepG2 hepatoma cells (Homo sapiens, 168 h), less than 20 nM.
In the same order, the values of `NC(=O)[C@]1(CCc2cc(F)c3cc(Cl)c(N)nc3c2)C[C@@H](n2ccc3c(N)ncnc32)[C@H](O)[C@@H]1O` [Compound 45, (1R,2R,3S,4R)-1-(2-(2-amino-3-chloro-5-fluoroquinolin-7-yl)ethyl)-4-(4-amino-7H-pyrrolo[2,3-d]pyrimidin-7-yl)-2,3-dihydroxycyclopentane-1-carboxamide] are less than 1 nM, 100 to 1000 nM and 100 to 1000 nM.
With `C[C@]1(CCc2cc(F)c3cc(Cl)c(N)nc3c2)C[C@@H](n2ccc3c(N)ncc(F)c32)[C@H](O)[C@@H]1O` [Compound 34, (1S,2R,3S,5R)-3-[2-(2-amino-3-chloro-5-fluoro-7-quinolyl)ethyl]-5-(4-amino-7-fluoro-pyrrolo[3,2-c]pyridin-1-yl)-3-methyl-cyclopentane-1,2-diol], the EC50 in assay [1] (Homo sapiens, A549, 168 h) was less than 20 nM; with HepG2 hepatoma cells (Homo sapiens, 168 h), less than 20 nM.
`C=C[C@]1(CCc2cc(F)c3cc(Cl)c(N)nc3c2)C[C@@H](n2ccc3c(N)ncnc32)[C@H](O)[C@@H]1O` [Compound 51] registered a half-maximal inhibitory concentration (IC50) at PRMT5/MEP50 of less than 1 nM. The EC50 in assay [1] (Homo sapiens, A549, 168 h) is less than 20 nM; in the assay with HepG2 hepatoma cells (Homo sapiens, 168 h) it was less than 20 nM.
With `Nc1ccc2ccc(CC[C@@]3(F)C[C@@H](n4ccc5c(N)ncnc54)[C@H](O)[C@@H]3O)cc2n1` [Compound 35, (1S,2S,3R,5R)-5-(4-amino-7H-pyrrolo[2,3-d]pyrimidin-7-yl)-3-(2-(2-aminoquinolin-7-yl)ethyl)-3-fluorocyclopentane-1,2-diol], the 50% effective concentration (EC50) in assay [1] (Homo sapiens, A549, 168 h) was less than 20 nM; in the assay with HepG2 hepatoma cells (Homo sapiens, 168 h), less than 20 nM.
Molecule `C[C@]1(CCc2cc(F)c3cc(Cl)c(N)nc3c2)C[C@@H](c2ccc3c(N)ncnn23)[C@H](O)[C@@H]1O` [Compound 57] gave a half-maximal inhibitory concentration (IC50) at PRMT5/MEP50 of less than 1 nM.
As to `C[C@]1(CCc2ccc3cc(Br)c(N)nc3c2)C[C@@H](n2ccc3c(N)ncnc32)[C@H](O)[C@@H]1O` [Compound 1], the EC50 was less than 20 nM in assay [1] (Homo sapiens, A549, 168 h) and less than 20 nM in the assay with HepG2 hepatoma cells (Homo sapiens, 168 h).
